Laboratory results published in publication PMC7143421 (Marine Drugs, 2020).
Square brackets hold non-standard residues; d marks the D form. Peptide text beside a SMILES is read from it. Hyp = O=C(O)[C@@H]1C[C@@H](O)CN1

How the values were obtained:
human NR2B [1] = biological target: T1, human NR2B (Homo sapiens, UniProt Q13224); experiment: cell-based
NR2A = NR2A (Homo sapiens, UniProt Q12879); assay type: cell-based
human NR2B [2] = biological target: T1, human NR2B

T1 sequence (Q13224 whole entry, looked up): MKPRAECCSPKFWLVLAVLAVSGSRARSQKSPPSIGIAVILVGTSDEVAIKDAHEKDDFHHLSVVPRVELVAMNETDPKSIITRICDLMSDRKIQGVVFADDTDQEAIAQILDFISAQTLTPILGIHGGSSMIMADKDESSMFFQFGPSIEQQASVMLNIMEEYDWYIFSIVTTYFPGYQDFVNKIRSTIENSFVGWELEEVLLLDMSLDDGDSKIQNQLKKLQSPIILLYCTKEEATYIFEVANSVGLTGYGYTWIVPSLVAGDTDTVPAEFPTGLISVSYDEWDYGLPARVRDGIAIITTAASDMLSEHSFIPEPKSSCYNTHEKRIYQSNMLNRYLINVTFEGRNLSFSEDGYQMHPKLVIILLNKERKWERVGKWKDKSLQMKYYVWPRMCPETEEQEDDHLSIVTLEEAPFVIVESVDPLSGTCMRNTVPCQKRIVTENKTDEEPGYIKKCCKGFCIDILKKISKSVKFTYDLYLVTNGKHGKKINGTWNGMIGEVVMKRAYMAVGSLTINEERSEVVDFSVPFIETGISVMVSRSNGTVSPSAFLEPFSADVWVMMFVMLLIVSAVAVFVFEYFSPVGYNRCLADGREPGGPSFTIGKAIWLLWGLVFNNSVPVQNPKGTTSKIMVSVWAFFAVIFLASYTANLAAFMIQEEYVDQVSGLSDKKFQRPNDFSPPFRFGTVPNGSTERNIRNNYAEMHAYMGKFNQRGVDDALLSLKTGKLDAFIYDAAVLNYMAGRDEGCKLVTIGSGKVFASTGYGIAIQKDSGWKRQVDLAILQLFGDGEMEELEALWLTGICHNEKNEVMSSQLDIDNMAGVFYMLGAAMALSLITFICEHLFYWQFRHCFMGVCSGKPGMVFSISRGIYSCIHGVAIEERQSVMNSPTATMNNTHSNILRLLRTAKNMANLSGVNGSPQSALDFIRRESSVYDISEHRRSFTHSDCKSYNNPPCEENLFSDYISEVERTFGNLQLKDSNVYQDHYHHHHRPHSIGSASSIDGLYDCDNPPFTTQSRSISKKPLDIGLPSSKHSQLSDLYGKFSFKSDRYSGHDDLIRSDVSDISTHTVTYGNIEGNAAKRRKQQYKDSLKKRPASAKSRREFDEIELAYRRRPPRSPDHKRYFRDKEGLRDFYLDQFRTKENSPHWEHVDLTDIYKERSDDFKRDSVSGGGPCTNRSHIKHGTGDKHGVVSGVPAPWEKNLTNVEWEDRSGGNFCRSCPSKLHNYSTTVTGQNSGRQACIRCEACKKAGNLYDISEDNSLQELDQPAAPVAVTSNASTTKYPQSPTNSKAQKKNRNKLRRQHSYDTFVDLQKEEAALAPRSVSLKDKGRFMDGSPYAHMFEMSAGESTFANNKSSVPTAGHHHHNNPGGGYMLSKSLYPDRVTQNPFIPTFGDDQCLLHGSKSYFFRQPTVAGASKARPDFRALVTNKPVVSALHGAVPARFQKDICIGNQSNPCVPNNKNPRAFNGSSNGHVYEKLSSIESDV
NR2A, sequence (Q12879 whole entry, looked up): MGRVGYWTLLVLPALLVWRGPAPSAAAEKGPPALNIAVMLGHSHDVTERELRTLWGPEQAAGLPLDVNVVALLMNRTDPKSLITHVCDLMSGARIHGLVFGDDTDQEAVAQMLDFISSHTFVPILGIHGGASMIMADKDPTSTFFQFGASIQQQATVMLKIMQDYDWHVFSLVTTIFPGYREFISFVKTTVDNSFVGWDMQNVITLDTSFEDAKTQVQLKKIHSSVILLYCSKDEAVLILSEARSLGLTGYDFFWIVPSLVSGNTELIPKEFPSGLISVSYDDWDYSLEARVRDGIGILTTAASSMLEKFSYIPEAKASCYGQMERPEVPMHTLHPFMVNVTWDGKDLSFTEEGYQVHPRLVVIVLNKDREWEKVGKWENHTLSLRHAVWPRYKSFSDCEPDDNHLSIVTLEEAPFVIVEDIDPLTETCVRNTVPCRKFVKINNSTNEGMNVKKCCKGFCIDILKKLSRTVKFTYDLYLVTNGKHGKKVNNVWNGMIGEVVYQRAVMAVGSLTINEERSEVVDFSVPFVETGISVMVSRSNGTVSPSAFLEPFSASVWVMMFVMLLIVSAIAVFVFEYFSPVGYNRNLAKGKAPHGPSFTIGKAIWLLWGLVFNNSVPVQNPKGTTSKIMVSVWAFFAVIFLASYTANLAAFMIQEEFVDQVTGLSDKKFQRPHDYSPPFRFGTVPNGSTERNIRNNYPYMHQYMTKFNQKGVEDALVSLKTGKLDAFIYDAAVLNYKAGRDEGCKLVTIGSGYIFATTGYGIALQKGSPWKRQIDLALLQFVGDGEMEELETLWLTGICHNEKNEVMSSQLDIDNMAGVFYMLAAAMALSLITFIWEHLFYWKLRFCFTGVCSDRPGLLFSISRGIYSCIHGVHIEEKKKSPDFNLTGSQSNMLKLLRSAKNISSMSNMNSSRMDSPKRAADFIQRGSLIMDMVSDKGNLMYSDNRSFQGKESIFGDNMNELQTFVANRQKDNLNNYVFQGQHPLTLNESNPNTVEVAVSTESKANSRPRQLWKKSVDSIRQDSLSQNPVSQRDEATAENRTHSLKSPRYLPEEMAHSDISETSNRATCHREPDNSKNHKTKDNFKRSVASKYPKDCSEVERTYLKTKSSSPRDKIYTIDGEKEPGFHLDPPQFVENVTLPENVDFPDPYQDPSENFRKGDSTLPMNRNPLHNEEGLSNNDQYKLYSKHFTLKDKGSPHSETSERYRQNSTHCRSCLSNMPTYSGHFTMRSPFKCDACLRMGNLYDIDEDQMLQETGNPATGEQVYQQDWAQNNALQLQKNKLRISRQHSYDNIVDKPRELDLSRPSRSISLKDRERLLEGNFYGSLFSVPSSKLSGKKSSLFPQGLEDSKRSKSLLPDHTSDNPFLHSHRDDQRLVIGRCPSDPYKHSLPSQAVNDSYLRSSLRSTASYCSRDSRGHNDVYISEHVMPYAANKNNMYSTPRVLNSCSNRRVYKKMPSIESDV

## CC(C)C[C@H](NC(=O)[C@H](Cc1ccc(O)cc1)NC(=O)[C@H](Cc1ccc(O)cc1)NC(=O)[C@@H](N)CC(N)=O)C(=O)N[C@@H](Cc1ccc(O)cc1)C(=O)N1C[C@H](O)C[C@H]1C(=O)N[C@@H](C)C(=O)N[C@@H](CCCNC(=N)N)C(=O)N1C[C@H](O)C[C@H]1C(=O)N[C@@H](CCC(=O)O)C(=O)N[C@@H](CC(N)=O)C(=O)N[C@@H](CO)C(=O)N[C@H](Cc1c[nH]c2ccccc12)C(=O)N[C@@H](Cc1c[nH]c2ccccc12)C(=O)N[C@H](C(=O)O)[C@@H](C)O [conotoxin-Ac1] (H-NYYLY[Hyp]AR[Hyp]ENS[dW]WT-OH)
Human NR2B [1]
  IC50: 8.22 ± 0.022 µM
NR2A
  The Inhibition of Currents (%) NR2A: 7.22%
Human NR2B [2]
  The Inhibition of Currents (%) NR2B: 51.69%
